Assay results taken from ChEMBL document CHEMBL1128533, “Synthesis and ligand binding study of 3 beta-(4'-substituted phenyl)-2 beta-(heterocyclic)tropanes” (J Med Chem, 1995).

Tests used:
[1] = molecular target: Monoamine transporters; serotonin & dopamine (Homo sapiens) (UniProt P31645+Q01959); experiment: Ratio of IC50 of 5-hydroxy tryptamine to dopamine; assay type: protein assay
[2] = molecular target: Sodium-dependent serotonin transporter (Rattus norvegicus, UniProt P31652); experiment: Binding affinity towards Serotonin transporter was determined using 5-HT [3H]paroxetine as radioligand
Chain of Sodium-dependent serotonin transporter (P31652 whole entry): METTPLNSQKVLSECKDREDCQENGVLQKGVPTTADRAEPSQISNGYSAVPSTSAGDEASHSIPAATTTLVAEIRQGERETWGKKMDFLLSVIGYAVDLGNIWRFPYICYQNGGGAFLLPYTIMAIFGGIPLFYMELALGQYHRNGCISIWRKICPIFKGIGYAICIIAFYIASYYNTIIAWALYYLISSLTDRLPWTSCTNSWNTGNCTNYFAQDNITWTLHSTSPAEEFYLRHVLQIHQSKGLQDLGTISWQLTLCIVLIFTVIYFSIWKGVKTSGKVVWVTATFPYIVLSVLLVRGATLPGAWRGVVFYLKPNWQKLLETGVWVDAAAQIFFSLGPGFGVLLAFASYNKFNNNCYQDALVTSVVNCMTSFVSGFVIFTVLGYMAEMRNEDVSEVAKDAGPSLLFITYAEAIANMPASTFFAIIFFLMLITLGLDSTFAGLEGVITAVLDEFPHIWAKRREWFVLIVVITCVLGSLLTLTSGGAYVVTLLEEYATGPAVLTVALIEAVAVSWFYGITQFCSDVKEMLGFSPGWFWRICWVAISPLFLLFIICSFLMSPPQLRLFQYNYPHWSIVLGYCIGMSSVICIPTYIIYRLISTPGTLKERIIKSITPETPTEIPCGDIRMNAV

[3] = molecular target: Sodium-dependent dopamine transporter (Rattus norvegicus, UniProt P23977); experiment: Binding affinity towards dopamine transporter was determined using DA[3H]WIN-35428 as radioligand
Chain of Sodium-dependent dopamine transporter (P23977 whole entry): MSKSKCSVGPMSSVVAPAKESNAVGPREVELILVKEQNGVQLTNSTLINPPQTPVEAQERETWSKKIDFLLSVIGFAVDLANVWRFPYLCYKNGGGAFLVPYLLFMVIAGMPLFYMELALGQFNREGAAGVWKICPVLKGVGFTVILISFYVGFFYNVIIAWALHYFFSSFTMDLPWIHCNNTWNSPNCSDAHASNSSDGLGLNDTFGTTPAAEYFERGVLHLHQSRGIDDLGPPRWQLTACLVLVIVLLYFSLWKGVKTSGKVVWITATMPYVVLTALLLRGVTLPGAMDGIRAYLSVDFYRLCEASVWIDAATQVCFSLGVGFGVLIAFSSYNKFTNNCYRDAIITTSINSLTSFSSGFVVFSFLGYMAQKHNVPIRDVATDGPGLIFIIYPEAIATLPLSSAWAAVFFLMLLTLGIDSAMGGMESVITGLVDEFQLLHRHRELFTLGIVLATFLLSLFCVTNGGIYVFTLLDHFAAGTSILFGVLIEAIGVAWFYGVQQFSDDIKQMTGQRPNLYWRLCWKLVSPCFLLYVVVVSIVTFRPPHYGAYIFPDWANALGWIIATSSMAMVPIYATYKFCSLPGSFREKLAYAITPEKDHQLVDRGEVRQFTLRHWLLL

[4] = Ratio of IC50 of norepinephrine to dopamine
[5] = molecular target: Norepinephrine transporter (Rattus norvegicus, UniProt Q9WTR4); experiment: Binding affinity towards Norepinephrine transporter was determined using NE[3H]Nisoxetine as radioligand
Chain of Norepinephrine transporter (Q9WTR4 whole entry): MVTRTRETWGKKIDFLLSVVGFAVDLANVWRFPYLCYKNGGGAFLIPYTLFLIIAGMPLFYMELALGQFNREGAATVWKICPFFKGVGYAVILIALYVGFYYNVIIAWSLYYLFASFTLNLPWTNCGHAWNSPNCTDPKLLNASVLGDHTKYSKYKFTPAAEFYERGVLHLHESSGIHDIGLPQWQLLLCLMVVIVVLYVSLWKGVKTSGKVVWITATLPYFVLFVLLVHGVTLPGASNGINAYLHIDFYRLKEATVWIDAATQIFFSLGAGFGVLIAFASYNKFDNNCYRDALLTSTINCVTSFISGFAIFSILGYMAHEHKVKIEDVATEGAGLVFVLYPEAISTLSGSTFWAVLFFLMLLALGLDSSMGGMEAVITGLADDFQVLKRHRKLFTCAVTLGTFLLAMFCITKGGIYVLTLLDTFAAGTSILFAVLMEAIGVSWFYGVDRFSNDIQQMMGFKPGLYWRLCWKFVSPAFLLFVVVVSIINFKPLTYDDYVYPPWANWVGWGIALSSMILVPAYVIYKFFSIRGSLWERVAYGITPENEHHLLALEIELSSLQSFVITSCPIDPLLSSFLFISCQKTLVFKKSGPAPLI

Chain of Monoamine transporters; serotonin & dopamine (Homo sapiens) (P31645 whole entry, looked up): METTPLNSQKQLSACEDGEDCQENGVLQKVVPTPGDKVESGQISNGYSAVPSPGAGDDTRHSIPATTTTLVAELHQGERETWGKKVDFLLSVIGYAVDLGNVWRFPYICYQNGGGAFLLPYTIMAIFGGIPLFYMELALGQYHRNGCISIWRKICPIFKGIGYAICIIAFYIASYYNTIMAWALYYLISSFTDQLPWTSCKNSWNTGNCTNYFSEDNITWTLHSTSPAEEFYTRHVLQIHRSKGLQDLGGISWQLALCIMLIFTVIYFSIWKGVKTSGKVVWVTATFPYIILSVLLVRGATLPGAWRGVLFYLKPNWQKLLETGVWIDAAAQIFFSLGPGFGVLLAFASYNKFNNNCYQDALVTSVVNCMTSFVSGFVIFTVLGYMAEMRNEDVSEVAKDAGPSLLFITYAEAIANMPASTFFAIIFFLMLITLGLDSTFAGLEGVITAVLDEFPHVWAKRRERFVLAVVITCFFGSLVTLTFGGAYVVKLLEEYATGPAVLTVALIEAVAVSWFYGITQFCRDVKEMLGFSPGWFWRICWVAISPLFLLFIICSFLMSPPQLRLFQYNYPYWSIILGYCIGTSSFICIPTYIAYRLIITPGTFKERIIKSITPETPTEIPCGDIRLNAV
Chain of Monoamine transporters; serotonin & dopamine (Homo sapiens) (Q01959 whole entry, looked up): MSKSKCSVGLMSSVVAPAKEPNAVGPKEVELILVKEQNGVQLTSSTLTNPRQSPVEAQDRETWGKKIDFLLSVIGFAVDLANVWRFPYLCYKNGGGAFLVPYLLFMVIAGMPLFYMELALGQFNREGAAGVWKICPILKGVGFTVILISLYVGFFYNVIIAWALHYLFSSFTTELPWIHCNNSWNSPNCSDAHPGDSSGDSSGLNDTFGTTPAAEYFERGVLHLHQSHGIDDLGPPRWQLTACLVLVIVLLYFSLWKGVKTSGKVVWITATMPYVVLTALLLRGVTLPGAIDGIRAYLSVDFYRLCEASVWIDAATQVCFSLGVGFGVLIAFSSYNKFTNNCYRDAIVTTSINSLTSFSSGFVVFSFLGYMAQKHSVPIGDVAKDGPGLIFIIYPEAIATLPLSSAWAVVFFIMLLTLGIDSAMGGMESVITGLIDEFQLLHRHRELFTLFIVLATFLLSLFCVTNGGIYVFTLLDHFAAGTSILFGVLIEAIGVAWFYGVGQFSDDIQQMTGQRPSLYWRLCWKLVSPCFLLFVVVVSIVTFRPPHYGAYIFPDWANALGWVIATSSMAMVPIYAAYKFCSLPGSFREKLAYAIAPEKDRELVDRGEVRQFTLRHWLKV

Structure (SMILES)	Ratio [1]	IC50 [2]	IC50 [3]	Ratio [4]	IC50 [5]
CN1C2CC[C@@H]1C[C@H](c1ccc(Cl)cc1)C2c1cc(-c2ccccc2)no1 (some centres undefined)	1890	2420 nM	1.28 nM	394	504 nM
CN1C2CCC1C(C(=O)Oc1ccccc1)C(c1ccc(Cl)cc1)C2 (centres undefined)	1180	–	–	1490	–
CN1C2CCC1C(c1nnc(-c3ccccc3)o1)C(c1ccc(Cl)cc1)C2 (centres undefined)	262	–	12.6 nM	74	929 nM
CN1C2CCC1C(c1nc(-c3ccccc3)no1)C(c1ccc(Cl)cc1)C2 (centres undefined)	120	–	1.62 nM	151	245 nM
CN1C2CCC1C(c1ncc(-c3ccccc3)o1)C(c1ccc(Cl)cc1)C2 (centres undefined)	57	–	19.7 nM	25	496 nM
